In patent EP0334146A1, “Morpholines and morpholine-N-oxides, medicines containing these compounds and process for their preparation” (Dr. Karl Thomae GmbH, priority 1988, dated 1989):

System: Mäusen
Experiment: Cardiac side effects: heart rate by ECG-triggered tachograph during the blood glucose test
Type: in vivo
Details: Dose 3,0 mg/kg oral; one hour after application; values in brackets = not significant (p > 0.05)
Text: Das Auftreten von unerwünschten Nebenwirkungen auf das Herz konnte für die erfindungsgemäßen Verbindungen für den therapeutisch angestrebten stoffwechselaktiven Dosisbereich ausgeschlossen werden. Als Nachweis diente die Messung der Herzfrequenz an Mäusen während der Testung auf blutzuckersenkende Wirkung (s.o.). Eine Stunde nach der oralen Applikation der Verbindungen wurde die Herzfrequenz mittels EKG-getriggertem Tachographen bestimmt. Die nachfolgende Tabelle gibt die Änderung der Herzfrequenz in % der Kontrollgruppe wieder.

CC(Cc1ccc(OCC(=O)O)cc1)N1CCOC(c2cccc(Cl)n2)C1 (stereo not shown) [Beispiel 4, N-[2-(4-Carboxymethoxyphenyl)-1-methylethyl]-2-(6-chlor-pyridin-2-yl)-morpholin]
Änderung der Herzfrequenz, % Änderung vom Wert der Kontrollgruppe: ( 0 ) %
